Measured values as given in ChEMBL document CHEMBL5465560, “Selectivity Literature for EUbOPEN Chemogenomic Library” (2024).

Assays:
[1] = target: Bromodomain adjacent to zinc finger domain protein 2B (Homo sapiens) (UniProt Q9UIF8); assay: Selectivity interaction (Human bromodomain panel (DSF assay)) EUB0000233b BAZ2B
[2] = system: Epidermal growth factor receptor (Homo sapiens), P00533 [L858R]; conditions: at 10 µM
[3] = target: Cyclin-dependent kinase 9 (Homo sapiens, UniProt P50750); assay: Selectivity interaction (KinomeScan (DiscoverX)) EUB0000045b CDK9
[4] = system: Tyrosine-protein kinase ABL1 (Homo sapiens), P00519 [T315I]; assay: Selectivity interaction (KinomeScan (DiscoverX)) EUB0000045b ABL1; conditions: at 1 µM
[5] = system: Tyrosine-protein kinase ABL1 (Homo sapiens), P00519 [T315I]; assay: Selectivity interaction (KinomeScan (DiscoverX)) EUB0001079a ABL1; conditions: at 1 µM
[6] = target: Epithelial discoidin domain-containing receptor 1 (Homo sapiens) (UniProt Q08345); assay: Selectivity interaction (KinomeScan (DiscoverX)) EUB0001079a DDR1; conditions: at 1 µM
[7] = target: DNA (cytosine-5)-methyltransferase 3B (Homo sapiens) (UniProt Q9UBC3); assay: Selectivity interaction (Methyltransferase screen (radiometric assays, panel of 8 PRMTs, 21 protein lysine methyltransferases, 3 DNA methyltransferases, and one RNA methyltransferase)) EUB0000272b DNMT3B
[8] = target: LIM domain kinase 2 (Homo sapiens) (UniProt P53671); assay: Selectivity interaction (KinomeScan (DiscoverX)) EUB0000666a LIMK2; conditions: at 10 µM
[9] = Selectivity interaction (PWWP, WD40, and Tudor domain panel (DSLS measurements, literature)) EUB0000270b WDR20
[10] = target: T1, Non-receptor tyrosine-protein kinase TNK1 (Homo sapiens) (UniProt Q13470); conditions: at 10 µM
T1 sequence (whole entry): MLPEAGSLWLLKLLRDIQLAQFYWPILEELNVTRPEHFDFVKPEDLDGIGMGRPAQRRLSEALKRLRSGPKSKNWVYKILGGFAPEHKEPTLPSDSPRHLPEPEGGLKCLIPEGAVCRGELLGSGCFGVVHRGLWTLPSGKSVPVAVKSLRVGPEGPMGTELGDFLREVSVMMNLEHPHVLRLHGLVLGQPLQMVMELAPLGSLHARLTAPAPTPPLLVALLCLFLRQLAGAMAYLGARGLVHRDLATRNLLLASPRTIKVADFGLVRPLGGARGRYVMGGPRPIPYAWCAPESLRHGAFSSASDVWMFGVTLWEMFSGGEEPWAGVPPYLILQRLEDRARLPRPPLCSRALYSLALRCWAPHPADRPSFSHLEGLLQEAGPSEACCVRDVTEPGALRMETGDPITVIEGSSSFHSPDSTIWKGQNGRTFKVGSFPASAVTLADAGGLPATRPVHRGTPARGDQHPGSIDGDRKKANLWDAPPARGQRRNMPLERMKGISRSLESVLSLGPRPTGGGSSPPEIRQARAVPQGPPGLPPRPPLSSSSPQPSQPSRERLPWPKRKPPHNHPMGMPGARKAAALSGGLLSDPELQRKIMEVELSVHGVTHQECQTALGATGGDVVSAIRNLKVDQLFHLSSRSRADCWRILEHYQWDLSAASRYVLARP

[11] = target: Dual specificity protein kinase CLK1 (Homo sapiens, UniProt P49759); conditions: at 10 µM
[12] = target: Tyrosine-protein kinase CSK (Homo sapiens) (UniProt P41240); assay: Selectivity interaction (Kinase screening (Upstate/Millipore)) EUB0000604a CSK
[13] = target: Casein kinase II subunit alpha (Homo sapiens, UniProt P68400); assay: Selectivity interaction (KinomeScan (DiscoverX)) EUB0001049a CSNK2A1; conditions: at 1 µM
[14] = target: Calcium/calmodulin-dependent protein kinase type II subunit delta (Homo sapiens) (UniProt Q13557); assay: Selectivity interaction (ProQinase) EUB0000171b CAMK2D
[15] = target: Protein kinase C gamma type (Homo sapiens) (UniProt P05129); assay: Selectivity interaction (ProQinase) EUB0000171b PRKCG
[16] = target: cAMP-dependent protein kinase catalytic subunit alpha (Homo sapiens, UniProt P17612); assay: Selectivity interaction (KinomeScan (DiscoverX)) EUB0000607a PRKACA; conditions: at 10 µM
[17] = target: Serine/threonine-protein kinase 16 (Homo sapiens, UniProt O75716); assay: Selectivity interaction (Kinase panel (Invitrogen)) EUB0000639a STK16; conditions: at 200 nM
[18] = target: T2, Casein kinase I isoform alpha-like (Homo sapiens) (UniProt Q8N752); conditions: at 10 µM
T2 sequence (whole entry): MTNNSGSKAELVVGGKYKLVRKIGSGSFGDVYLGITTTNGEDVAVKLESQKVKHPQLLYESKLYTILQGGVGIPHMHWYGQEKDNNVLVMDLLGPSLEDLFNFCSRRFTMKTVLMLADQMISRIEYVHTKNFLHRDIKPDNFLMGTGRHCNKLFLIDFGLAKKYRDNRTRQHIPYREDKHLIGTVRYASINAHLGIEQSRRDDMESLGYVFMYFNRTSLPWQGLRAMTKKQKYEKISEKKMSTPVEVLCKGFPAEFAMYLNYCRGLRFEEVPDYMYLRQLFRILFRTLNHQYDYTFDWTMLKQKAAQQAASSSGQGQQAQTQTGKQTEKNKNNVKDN

Calcium/calmodulin-dependent protein kinase type II subunit delta (Homo sapiens), sequence (Q13557 whole entry): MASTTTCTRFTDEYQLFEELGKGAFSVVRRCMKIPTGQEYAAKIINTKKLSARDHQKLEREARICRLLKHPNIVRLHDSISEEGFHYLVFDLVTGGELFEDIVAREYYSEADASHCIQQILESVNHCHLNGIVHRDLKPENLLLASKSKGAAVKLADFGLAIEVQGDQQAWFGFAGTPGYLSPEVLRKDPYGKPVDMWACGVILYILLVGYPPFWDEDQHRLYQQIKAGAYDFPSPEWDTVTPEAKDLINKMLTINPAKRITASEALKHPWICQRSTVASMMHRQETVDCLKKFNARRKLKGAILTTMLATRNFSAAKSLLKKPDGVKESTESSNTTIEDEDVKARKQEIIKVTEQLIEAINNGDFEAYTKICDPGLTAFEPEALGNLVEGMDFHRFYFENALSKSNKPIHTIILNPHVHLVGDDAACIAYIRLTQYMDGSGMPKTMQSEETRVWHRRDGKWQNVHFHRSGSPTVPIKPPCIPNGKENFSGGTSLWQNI
Cyclin-dependent kinase 9, sequence (P50750 whole entry): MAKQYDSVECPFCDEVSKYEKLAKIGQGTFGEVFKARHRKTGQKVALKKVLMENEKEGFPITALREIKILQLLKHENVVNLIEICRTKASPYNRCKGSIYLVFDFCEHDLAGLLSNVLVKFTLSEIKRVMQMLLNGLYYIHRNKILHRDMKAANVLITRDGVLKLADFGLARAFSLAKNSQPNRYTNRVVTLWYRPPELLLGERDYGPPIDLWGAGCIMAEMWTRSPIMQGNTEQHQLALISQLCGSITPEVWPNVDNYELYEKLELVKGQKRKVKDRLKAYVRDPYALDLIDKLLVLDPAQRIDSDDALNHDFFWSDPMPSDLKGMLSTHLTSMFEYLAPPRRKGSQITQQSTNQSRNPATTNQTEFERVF
Casein kinase II subunit alpha, sequence (P68400 whole entry, looked up): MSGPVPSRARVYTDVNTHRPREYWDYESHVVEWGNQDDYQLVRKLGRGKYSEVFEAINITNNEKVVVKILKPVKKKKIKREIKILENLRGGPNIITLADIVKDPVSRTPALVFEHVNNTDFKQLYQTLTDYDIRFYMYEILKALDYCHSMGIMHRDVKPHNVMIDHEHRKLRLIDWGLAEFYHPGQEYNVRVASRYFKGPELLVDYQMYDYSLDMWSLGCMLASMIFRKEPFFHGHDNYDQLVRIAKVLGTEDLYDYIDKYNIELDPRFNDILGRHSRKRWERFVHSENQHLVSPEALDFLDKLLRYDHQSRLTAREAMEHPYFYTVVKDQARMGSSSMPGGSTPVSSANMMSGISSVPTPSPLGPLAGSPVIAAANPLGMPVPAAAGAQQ
Serine/threonine-protein kinase 16, sequence (O75716 whole entry, canonical isoform): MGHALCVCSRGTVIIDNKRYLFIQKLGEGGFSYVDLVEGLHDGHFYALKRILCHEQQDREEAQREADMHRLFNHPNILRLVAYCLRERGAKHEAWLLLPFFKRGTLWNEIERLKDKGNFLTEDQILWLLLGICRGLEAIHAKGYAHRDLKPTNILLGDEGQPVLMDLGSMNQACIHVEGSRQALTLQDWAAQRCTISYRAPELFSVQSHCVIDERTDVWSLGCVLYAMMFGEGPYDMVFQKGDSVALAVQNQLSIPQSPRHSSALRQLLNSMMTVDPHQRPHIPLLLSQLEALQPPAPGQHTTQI
Bromodomain adjacent to zinc finger domain protein 2B (Homo sapiens), sequence (Q9UIF8 whole entry, the tested form may be a part): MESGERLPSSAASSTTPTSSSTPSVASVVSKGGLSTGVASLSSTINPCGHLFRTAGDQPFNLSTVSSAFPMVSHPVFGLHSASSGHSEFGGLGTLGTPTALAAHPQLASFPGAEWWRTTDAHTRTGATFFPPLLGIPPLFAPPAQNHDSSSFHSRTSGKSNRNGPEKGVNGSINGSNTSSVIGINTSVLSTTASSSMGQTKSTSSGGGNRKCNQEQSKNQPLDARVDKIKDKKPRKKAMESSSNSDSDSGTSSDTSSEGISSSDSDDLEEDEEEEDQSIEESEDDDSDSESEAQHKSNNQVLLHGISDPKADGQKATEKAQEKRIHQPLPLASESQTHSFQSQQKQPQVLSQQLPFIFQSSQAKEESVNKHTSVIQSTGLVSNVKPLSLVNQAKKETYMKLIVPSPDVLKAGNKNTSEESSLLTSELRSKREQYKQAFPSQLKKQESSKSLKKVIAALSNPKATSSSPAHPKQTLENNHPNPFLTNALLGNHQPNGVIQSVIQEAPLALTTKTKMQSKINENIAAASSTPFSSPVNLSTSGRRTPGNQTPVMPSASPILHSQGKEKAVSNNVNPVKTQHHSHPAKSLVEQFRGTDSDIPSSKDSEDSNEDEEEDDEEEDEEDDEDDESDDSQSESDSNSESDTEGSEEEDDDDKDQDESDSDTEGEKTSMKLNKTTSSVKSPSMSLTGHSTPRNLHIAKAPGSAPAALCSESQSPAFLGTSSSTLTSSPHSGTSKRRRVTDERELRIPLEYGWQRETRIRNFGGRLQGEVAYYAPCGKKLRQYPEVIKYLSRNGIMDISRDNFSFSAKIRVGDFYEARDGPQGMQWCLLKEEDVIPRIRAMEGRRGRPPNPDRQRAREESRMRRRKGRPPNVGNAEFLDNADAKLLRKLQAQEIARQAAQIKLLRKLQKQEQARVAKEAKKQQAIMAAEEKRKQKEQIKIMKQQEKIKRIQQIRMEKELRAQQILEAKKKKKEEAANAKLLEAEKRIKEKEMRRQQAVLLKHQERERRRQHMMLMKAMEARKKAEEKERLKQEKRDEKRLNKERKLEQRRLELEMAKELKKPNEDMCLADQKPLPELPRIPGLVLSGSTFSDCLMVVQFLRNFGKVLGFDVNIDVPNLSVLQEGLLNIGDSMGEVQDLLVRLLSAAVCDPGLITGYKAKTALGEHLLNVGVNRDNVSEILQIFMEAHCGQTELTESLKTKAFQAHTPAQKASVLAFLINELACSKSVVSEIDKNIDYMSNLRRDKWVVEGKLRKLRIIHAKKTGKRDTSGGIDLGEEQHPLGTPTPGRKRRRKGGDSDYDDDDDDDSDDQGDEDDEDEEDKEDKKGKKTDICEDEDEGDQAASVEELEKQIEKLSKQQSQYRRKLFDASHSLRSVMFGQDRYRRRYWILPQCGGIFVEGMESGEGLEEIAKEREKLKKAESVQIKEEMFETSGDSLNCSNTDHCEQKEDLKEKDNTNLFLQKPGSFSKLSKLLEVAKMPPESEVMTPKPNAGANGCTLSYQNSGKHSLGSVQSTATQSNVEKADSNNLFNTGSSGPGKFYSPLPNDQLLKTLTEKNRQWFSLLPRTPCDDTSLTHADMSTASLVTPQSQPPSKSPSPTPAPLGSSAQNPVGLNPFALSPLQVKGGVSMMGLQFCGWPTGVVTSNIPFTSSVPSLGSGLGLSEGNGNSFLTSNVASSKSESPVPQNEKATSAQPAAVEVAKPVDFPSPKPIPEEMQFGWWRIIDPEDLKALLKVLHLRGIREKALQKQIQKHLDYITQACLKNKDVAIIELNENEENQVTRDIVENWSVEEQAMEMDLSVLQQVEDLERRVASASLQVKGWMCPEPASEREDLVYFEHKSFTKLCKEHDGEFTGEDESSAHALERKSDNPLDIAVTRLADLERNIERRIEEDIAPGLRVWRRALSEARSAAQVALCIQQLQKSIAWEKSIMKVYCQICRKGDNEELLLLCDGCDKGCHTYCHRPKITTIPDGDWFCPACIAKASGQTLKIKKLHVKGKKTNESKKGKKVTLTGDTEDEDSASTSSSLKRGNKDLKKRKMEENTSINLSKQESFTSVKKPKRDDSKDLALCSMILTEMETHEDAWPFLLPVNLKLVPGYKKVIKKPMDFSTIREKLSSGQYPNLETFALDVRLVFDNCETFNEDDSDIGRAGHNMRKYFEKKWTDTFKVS
Dual specificity protein kinase CLK1, sequence (P49759 whole entry, looked up): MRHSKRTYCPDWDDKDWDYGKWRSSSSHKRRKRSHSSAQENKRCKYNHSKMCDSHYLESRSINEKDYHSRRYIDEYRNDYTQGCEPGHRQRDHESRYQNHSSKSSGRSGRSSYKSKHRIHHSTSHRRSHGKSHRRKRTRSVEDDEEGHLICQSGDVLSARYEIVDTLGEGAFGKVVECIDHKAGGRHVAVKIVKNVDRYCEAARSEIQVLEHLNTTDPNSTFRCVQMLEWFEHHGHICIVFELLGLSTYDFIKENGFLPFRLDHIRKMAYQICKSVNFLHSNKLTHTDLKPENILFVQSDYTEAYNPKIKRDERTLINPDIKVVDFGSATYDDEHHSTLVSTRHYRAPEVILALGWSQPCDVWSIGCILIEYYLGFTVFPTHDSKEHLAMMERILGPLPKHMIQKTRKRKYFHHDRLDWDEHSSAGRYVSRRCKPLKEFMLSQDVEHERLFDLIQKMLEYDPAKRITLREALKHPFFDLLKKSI

CN(C)CCCOc1ccc(-c2cc(NCCCn3cccn3)nc(S(C)(=O)=O)n2)cc1
dTM [1]: < 2 K

COCC(=O)NC/C=C/c1ccc2ncnc(Nc3ccc(Oc4ccc(C)nc4)c(C)c3)c2c1 [CP-724714]
% of control [2]: 0.6%

C=CC(=O)Nc1cc(-n2c(=O)ccc3cnc4ccc(-c5ccc(NS(C)(=O)=O)cc5)cc4c32)ccc1C
% of control ([3]; at 1 µM): 100%
% of control ([3]; at 10 µM): 95%
% of control [4]: 87%

Nc1cnc(N2CCc3cc(S(=O)(=O)Nc4c(F)cc(Cl)cc4F)cc(N4CCCC4=O)c32)nc1 [TP-020n]
% of control [5]: 98%
% of control [6]: 100%

Cc1cc(C)cc([C@H]2c3cc(C)ccc3NC(=O)CN2C(=O)c2ccc(Br)s2)c1
% of activity ([7]; at 1 µM): 97.3%
% of activity ([7]; at 10 µM): 102%

O=C(NOC[C@H](O)CO)c1ccc(F)c(F)c1Nc1ccc(I)cc1F
% of control [8]: 100%

Cc1cc(CN)cc(C)c1-c1ncn(C)c1-c1cncn1C
dTagg [9]: 0 K

Cc1cc([C@@H](C)Nc2ccccc2C(=O)O)c2nc(N3CCOCC3)cc(=O)n2c1 [AZD-6482]
% of control [10]: 100%
% of control [11]: 74%

Cc1cnc(Nc2ccc(F)cc2Cl)nc1-c1c[nH]c(C(=O)N[C@H](CO)c2cccc(Cl)c2)c1
% of inhibition [12]: 0%

COc1cc(Nc2nc(C)cc(-c3cnn4nc(OC)ccc34)n2)cc(C(F)(F)F)c1
% of control [13]: 83%

C=CC(=O)Nc1cccc(C(=O)Nc2ccc(Nc3cc(-c4[nH]c(SC)nc4C)ccn3)cc2)c1
% of control ([14]; at 1 µM): 95%
% of control ([14]; at 5 µM): 92%
% of control ([15]; at 1 µM): 88%
% of control ([15]; at 5 µM): 100%

CNC(=O)Nc1ccc(-c2nc(N3CC4CCC(C3)O4)c3cnn(C4CCC5(CC4)OCCO5)c3n2)cc1
% of control [16]: 75%

CC[C@@H]1[C@H](F)C(=O)N[C@@H]1COc1nccc2cc(C(N)=O)c(OC)cc12 [ZIMLOVISERTIB]
% of inhibition [17]: 14.2%

CCN(CC)CCCCNc1ncc2cc(-c3cc(OC)cc(OC)c3)c(NC(=O)NC(C)(C)C)nc2n1
% of control [18]: 100%
